Reference: patent US20260325473A1, “N-Beta-Hydroxybutyryl-Amino Acids and Related Compositions and Methods” (The Board of Trustees of the Leland Stanford Junior …, priority 2023, published 2026)

Legend:
[1] = Human ketone ester supplementation study, plasma metabolites; type: in vivo; settings: 0.3 g/kg ketone ester, 60 min vs baseline
Method: Targeted metabolomics. Targeted measurements were performed using an Agilent 6470 triple quadrupole LC-MS instrument. MS analysis was performed using AJS in negative mode. The AJS source parameters were set as follows: the dry gas temperature was set at 250° C. with a gas flow of 12 l/min and the nebulizer pressure at 25 psi; the sheath gas temperature was set to 300° C. with the sheath gas flow set at 12 l/min; and the capillary voltage was set to 3,500 V. Separation of polar metabolites was performed as described above in the ‘Untargeted measurements of metabolites by LC-MS’ section. Multiple reaction monitoring was performed for the indicated metabolites with the listed dwell times, fragmentor voltage, collision energies, cell accelerator voltages and polarities. Quantification of the endogenous metabolite concentrations were performed by generating a standard curve with known concentrations of each metabolite. Metabolite standards were analyzed alongside the plasma samples using the same targeted triple quadrupole LC/MS method. A calibration standard curve generated from the metabolite standard concentrations and total peak areas were used to calculate the concentrations of each endogenous metabolite. The dilution of the plasma during the sample preparation was also taken into account for the quantification.
Human ketone ester supplementation study. Following screening, eligible subjects participated in a randomized, counter-balanced, double-blind, placebo-controlled crossover trial comparing BHB supplementation versus placebo, separated by a minimum of 2 days (ClinicalTrials.gov ID NCT04194450). Pre-menopausal women were tested in the follicular phase (days 3-9). Participants were asked to refrain from structured exercise and alcohol, limit physical activity, and follow a standardized diet (~50% carbohydrate, ~30% fat, ~20% protein) on the day before each trial. After refraining from medication use for 24 hours, participants reported to the Exercise, Metabolism and Inflammation Laboratory at the University of British Columbia-Okanagan in an overnight fasted state. Anthropometric measurements were obtained prior to insertion of an indwelling intravenous catheter into the antecubital vein for repeated blood sampling. Blood was collected into EDTA tubes (BD, 367863) and immediately centrifuged at 2000 rpm for 15 min and the top layer of plasma was aliquoted and frozen at −80 °C. After baseline (0) blood sample collection, the oral BHB supplement or placebo was consumed in liquid form (~30-65 mL). The BHB supplement (H.V.M.N®, USA) in the form of the ketone monoester (R)-3-hydroxybutyl (R)-3-hydroxybutyrate (AG®, TDeltaS, Oxford, UK) contained 0.4 g mL-1 BHB, natural flavoring, and <2% stevia leaf extract. The taste-matched placebo drink contained the same natural flavoring as the ketone supplement, stevia leaf extract, 5 mL of Bittrex stock (0.005 g of denatonium benzoate powder in 40 ml of water) and 1.5 mL of arrowroot stock (2 g of arrowroot powder in 50 ml of water) to match the bitter flavor and viscosity of the ketone monoester. Supplements were dispensed into opaque 80 ml bottles with volume calculated for 0.3 g BHB/kg body weight and labelled either A or B by a third-party researcher. Blinding was maintained until completion of data collection and analyses.

CNDP2 = target: T1, CNDP2 (Mus musculus, UniProt Q9D1A2); assay: Tissue enzyme activity, WT or CNDP2-KO mouse tissue lysates; type: biochemical; settings: role: product; for synthesis activity in WT kidney and gut: 1 h, 37° C
T1 sequence (Q9D1A2 1-475): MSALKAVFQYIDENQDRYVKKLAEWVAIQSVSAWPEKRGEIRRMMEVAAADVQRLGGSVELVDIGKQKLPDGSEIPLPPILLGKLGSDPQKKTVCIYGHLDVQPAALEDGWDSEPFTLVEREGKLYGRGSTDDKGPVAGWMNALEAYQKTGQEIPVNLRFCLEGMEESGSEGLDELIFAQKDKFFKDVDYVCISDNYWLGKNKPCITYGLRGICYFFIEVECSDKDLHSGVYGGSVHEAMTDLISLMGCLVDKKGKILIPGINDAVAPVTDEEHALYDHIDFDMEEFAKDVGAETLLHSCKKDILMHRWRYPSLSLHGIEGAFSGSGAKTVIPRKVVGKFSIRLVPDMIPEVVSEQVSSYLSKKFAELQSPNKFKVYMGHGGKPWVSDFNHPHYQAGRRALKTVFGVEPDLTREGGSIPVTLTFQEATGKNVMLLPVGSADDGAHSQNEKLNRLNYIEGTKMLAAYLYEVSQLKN
Method: Tissue enzyme activity assays. Mouse tissues were mixed with cold PBS and homogenized using a Benchmark BeadBlaster Homogenizer at 4 °C. Protein concentrations were adjusted and the resulting crude was filtered through a 0.45-μm filter to remove insoluble materials. The in vitro reactions were conducted in Eppendorf tubes with 200 μg protein and incubation with the corresponding substrates at 37° C. for 1 hour. After that time, 10 μl of HCl and 400 μl of ethyl acetate were added in the BHB and lactate reactions and the samples were vortexed for 30 s. Reactions were centrifuged at 4° C. for 10 min at 15,000 r.p.m. and total of 300 μl from the top layer was transferred to a new Eppendorf tube and dried down under a stream of nitrogen. The residue was re-suspended in 100 μl of an 2:1:1 mixture of acetonitrile: methanol: water. The mixture was centrifuged at 4° C. for 10 min at 15,000 r.p.m. and the supernatant was transferred to a LC-MS vial. For carnosine reactions, the reactions were not acidified and were directly quenched with 300 μl of an 2:1:1 mixture of acetonitrile: methanol: water after the 1 h incubation and vortexed for 30 s. The mixture was centrifuged at 4° C. for 10 min at 15,000 r.p.m. and the supernatant was transferred to a LC-MS vial.

DIO mice = assay: Chronic administration in DIO mice: body weight and food intake; type: in vivo, mouse; settings: for body weight, head-to-head keto amino acids: 5 days, vs vehicle
Method: General animal information. Animal experiments were performed according to procedure approved by the Stanford University Administrative Panel on Laboratory Animal Care (APLAC). Mice were maintained in 12-hr light-dark cycles at 22° C. and ~50% relative humidity and fed a standard irradiated rodent chow diet. Where indicated, high-fat diet (D12492, Research Diets 60% kcal from fat) and ketogenic diet (D06040601, Research Diets, 80% kcal fat/15% kcal protein/5% kcal carbohydrate) was used. Male C57BL/6J (stock no. 000664) and male C57BL/6J DIO mice (stock no. 380050) were purchased from Jackson Laboratory. Male C57BL/6NCrl (stock no. 027) mice were purchased from Charles River Laboratory. Whole body CNDP2-KO mice (catalog number, C57BL/6NCrl-Cndp2em1 (IMPC) Mbp/Mmucd, RRID: MMRRC_043492-UCD) were obtained from the Mutant Mouse Regional Resource Center, a NCRR-NIH funded strain repository. For in vivo injection of mice with metabolites, compounds were dissolved in 18:1:1 (by volume) of saline/Kolliphor EL (Sigma Aldrich)/DMSO. Compounds were administered to mice daily via intraperitoneal injections at 5 μl/g body weight at the indicated doses. For all injection experiments, mice were mock injected with the vehicle for 3-5 days until body weights have stabilized. Sample sizes were determined on the basis of previous experiments using similar methodologies. For metabolite administration experiments, mice were randomly assigned to treatment groups. Experimenters were not blinded to groups.

| Structure (SMILES) | elevation of plasma keto amino acid after ketone ester drink [1] [fold] | synthesis activity in WT brain, liver, and quadriceps (CNDP2; BHB 20 mM + Phe 20 mM) | reduction of synthesis activity in CNDP2-KO vs WT, brain (CNDP2; BHB 20 mM + Phe 20 mM, brain) [%] | reduction of synthesis activity in CNDP2-KO vs WT, gut (CNDP2; BHB 20 mM + Phe 20 mM, gut) [%] | reduction of synthesis activity in CNDP2-KO vs WT, kidney (CNDP2; BHB 20 mM + Phe 20 mM, kidney) [%] | reduction of synthesis activity in CNDP2-KO vs WT, liver (CNDP2; BHB 20 mM + Phe 20 mM, liver) [%] | reduction of synthesis activity in CNDP2-KO vs WT, quadriceps (CNDP2; BHB 20 mM + Phe 20 mM, quadriceps) [%] | synthesis activity in WT kidney and gut (CNDP2; BHB 20 mM + amino acid 20 mM) | food intake and body weight, related metabolites and dipeptides (DIO mice; 50 mg/kg IP, 9 days) | body weight and food intake, conjugate vs components (DIO mice; 50 mg/kg/day IP, BHB or phenylalanine at the same doses, 9 days) | body weight gain, 2-week study (DIO mice; 50 mg/kg/day IP, 2 weeks) | daily food intake, 2-week study (DIO mice; 50 mg/kg/day IP, 2 weeks) | body weight gain (DIO mice; 50 mg/kg/day IP, 10-day period) | suppression of daily food intake, average (DIO mice; 50 mg/kg/day IP, 10-day period) [%] | body weight, head-to-head keto amino acids (DIO mice; 50 mg/kg/day IP) | weight loss compared with pair-fed controls (DIO mice; 50 mg/kg/day IP, 6 days) | BHB-amino acid synthesis activity in CNDP2-KO kidney and gut (CNDP2; BHB 20 mM + amino acid 20 mM) |
| --- | --- | --- | --- | --- | --- | --- | --- | --- | --- | --- | --- | --- | --- | --- | --- | --- | --- |
| CC(O)CC(=O)N[C@@H](Cc1ccccc1)C(=O)O (some centres unmarked) [BHB-Phe, N-betahydroxybutyryl-phenylalanine] | 3 | lower, but detectable | > 85 | > 95 | > 95 | > 75 | > 60 | highest BHB-Phe synthesis activity | suppressed food intake and body weight | efficiently suppressed body weight and food intake | concomitant reduction in body weight gain | durable suppression of daily food intake | concomitant reduction in body weight gain | −30 | effective in suppressing body weight | lost the same amount of weight as pair-fed controls |  |
| CC(O)CC(=O)N[C@H](C(=O)O)C(C)C (some centres unmarked) [BHB-Val, N-betahydroxybutyryl-valine] | 2.5 |  |  |  |  |  |  | highest BHB-amino acid synthesis activity |  |  |  |  |  |  | effective in suppressing body weight |  | largely abolished |
